# Source: patent US6064908A, “Device for ionophoresis comprising at least a membrane electrode assembly, for the transcutaneous administration of active principles to a subject” (Elf Aquitaine, priority 1996, dated 2000)
# Assays:
# [1] = administration of pentasaccharide sodium salt in mini pigs by iontophoresis at set current density; antifactor Xa plasma levels; type: in vivo, mini pigs of the YUCATAN strain
# Procedure: Administration in mini pigs of pentasaccharide sodium salt by iontophoresis at a set current density.
# Specialists consider mini pigs of the YUCATAN strain to be an excellent animal model for studying the administration in man of medicaments by iontophoresis. This is because the skin structure of this animal is very similar to that of human skin.
# The following tests were carried out on the aforementioned mini pig with the aim of comparing the administration by iontophoresis of the sodium salt of the pentasaccharide used in Example 1 with administration by subcutaneous injection.
# For these tests, pairs of adhesive electrode assemblies were formed, each pair comprising a donor electrode assembly, equipped with a reversible negative electrode (active electrode) and containing the pentasaccharide to be administered, and a passive electrode assembly formed by a positive electrode (back electrode) in contact with a second reservoir element containing an arbitrary (i.e. indifferent) electrolyte.
# In the donor electrode assembly according to the invention, as well as in the reference donor assembly, the electrode 6 made of chloridized silver contained a quantity of silver chloride equivalent to 1.8 mAh/cm^2, thus allowing the electrode to sustain the quantity of electricity flowing through the electrodes over the duration of the iontophoretic treatment, namely 0.88 mAh/cm^2.
# The primary electrolyte medium constituting the primary reservoir element 11 of the donor electrode assembly according to the invention, as well as the conducting, absorbent, porous material forming the reservoir element 11 of the reference electrode assembly, each consisted of a sheet of blotting paper made of cellulose fibres supplemented by polypropylene fibrils, having a surface area of 20 cm^2 and a thickness of 0.5 mm and being impregnated, to a level of 50 mg/cm^2, with an aqueous solution containing 2% by weight of pentasaccharide. Each reservoir element 11 contained in total 1 g of solution, i.e. 20 mg of pentasaccharide over 20 cm^2 of active surface (1 mg/cm^2). 20 mg of pentasaccharide were therefore employed in total per animal.
# The selectively permeable membrane separating the recesses 2 and 15 of the donor electrode assembly according to the invention, that is to say separating the primary 11 and secondary 20 reservoir elements of the said electrode assembly, consisted of a 50 μm thick film of the polyether block amide PEBAX MV 1041 defined in Example 1.
# In each passive electrode assembly, the positive electrode (back electrode) made of chloridized silver contained a quantity of silver chloride equivalent to 0.1 mAh/cm^2 and the reservoir element associated with this electrode consisted of a sheet of blotting paper made of cellulose fibres supplemented by polypropylene fibrils having a surface area of 20 cm^2 and a thickness of 0.5 mm and was impregnated with an aqueous solution of NaCl to contain 6% by weight of this salt.
# An electric signal generator which could be connected to the electrodes of each pair of electrode assemblies, made it possible to deliver a continuous electric signal of controlled intensity between the said electrodes.
# Five days before each test, the animals were catheterized in the two jugulars, as is well known for any experimentation in medicament administration, in order to make it possible to take regular blood samples intended for assaying the antifactor Xa activities and thereby to evaluate the quantities of active principle that pass through the skin to enter the circulatory system and therefore to check the effectiveness of the iontophoretic treatment.
# The animals, fasted from the day before the experiments, were placed in specialized hammocks. […]
# factor Xa = assay: antifactor Xa activity of the active principle; type: biochemical; settings: sodium salt
# Procedure: The assay of the pentasaccharide in the receiver compartment was based on investigating its antifactor Xa activity. The assay was carried out either directly on the medium sample from the receiver compartment or after dilution, using a ROTACHROM HEPARIN 8® assay kit, with a complementary buffer for the assay instrument and the bovine antithrombin III, these various elements being supplied by the company STAGO, using a HITACHI 717 assay instrument. The calibration curve was established using a "Golden Standard" pentasaccharide solution to which an antifactor Xa activity equal to 13 units per ml was assigned.
smiles,measurement,setting,value
O=C(O)C1OC(OC2C(COS(=O)(=O)O)OC(OC3C(C(=O)O)OC(OC4C(COS(=O)(=O)O)OC(O)C(NS(=O)(=O)O)C4O)C(OS(=O)(=O)O)C3O)C(NS(=O)(=O)O)C2OS(=O)(=O)O)C(O)C(O)C1OC1OC(COS(=O)(=O)O)C(O)C(O)C1NS(=O)(=O)O (stereo not shown) [pentasaccharide],bioavailability for the in-vivo tests vs in-vitro utilization factors,[1]; Example 2 vs Example 1,higher than the utilization factors which were obtained for the in-vitro tests
same,Bioavailability,"[1]; Test 2a: passive, no current",0%
same,"plasma level, Antifactor Xa","[1]; Test 2a: passive, no current, 0 h",0 units/ml
same,"plasma level, Antifactor Xa","[1]; Test 2a: passive, no current, 0.25 h",0 units/ml
same,"plasma level, Antifactor Xa","[1]; Test 2a: passive, no current, 0.50 h",0 units/ml
same,"plasma level, Antifactor Xa","[1]; Test 2a: passive, no current, 1.00 h",0 units/ml
same,"plasma level, Antifactor Xa","[1]; Test 2a: passive, no current, 2.00 h",0 units/ml
same,"plasma level, Antifactor Xa","[1]; Test 2a: passive, no current, 4.00 h",0 units/ml
same,"plasma level, Antifactor Xa","[1]; Test 2a: passive, no current, 6.00 h",0 units/ml
same,"plasma level, Antifactor Xa","[1]; Test 2a: passive, no current, 8.00 h",0 units/ml
same,"plasma level, Antifactor Xa","[1]; Test 2a: passive, no current, 10.00 h",0 units/ml
same,"plasma level, Antifactor Xa","[1]; Test 2a: passive, no current, 16.00 h",0 units/ml
same,"plasma level, Antifactor Xa","[1]; Test 2a: passive, no current, 24.00 h",0 units/ml
same,"plasma level, Antifactor Xa","[1]; Test 2a: passive, no current, 30.00 h",0 units/ml
same,"plasma levels (antifactor Xa), invention vs reference iontophoresis",[1]; Test 2b vs Test 2c,more than three times higher
same,"plasma level, Antifactor Xa","[1]; Test 2b: iontophoresis, PEBAX MV 1041 membrane, 20 mg, 8 hours",1 units/ml
same,"plasma level, Antifactor Xa","[1]; Test 2b: iontophoresis, PEBAX MV 1041 membrane, 20 mg, 8 hours, 0 h",0 units/ml
same,"plasma level, Antifactor Xa","[1]; Test 2b: iontophoresis, PEBAX MV 1041 membrane, 20 mg, 8 hours, 0.25 h",0.07 units/ml
same,"plasma level, Antifactor Xa","[1]; Test 2b: iontophoresis, PEBAX MV 1041 membrane, 20 mg, 8 hours, 0.50 h",0.14 units/ml
same,"plasma level, Antifactor Xa","[1]; Test 2b: iontophoresis, PEBAX MV 1041 membrane, 20 mg, 8 hours, 1.00 h",0.36 units/ml
same,"plasma level, Antifactor Xa","[1]; Test 2b: iontophoresis, PEBAX MV 1041 membrane, 20 mg, 8 hours, 2.00 h",0.81 units/ml
same,"plasma level, Antifactor Xa","[1]; Test 2b: iontophoresis, PEBAX MV 1041 membrane, 20 mg, 8 hours, 4.00 h",1.3 units/ml
same,"plasma level, Antifactor Xa","[1]; Test 2b: iontophoresis, PEBAX MV 1041 membrane, 20 mg, 8 hours, 6.00 h",0.98 units/ml
same,"plasma level, Antifactor Xa","[1]; Test 2b: iontophoresis, PEBAX MV 1041 membrane, 20 mg, 8 hours, 10.00 h",0.79 units/ml
same,"plasma level, Antifactor Xa","[1]; Test 2b: iontophoresis, PEBAX MV 1041 membrane, 20 mg, 8 hours, 16.00 h",0.38 units/ml
same,"plasma level, Antifactor Xa","[1]; Test 2b: iontophoresis, PEBAX MV 1041 membrane, 20 mg, 8 hours, 24.00 h",0.12 units/ml
same,"plasma level, Antifactor Xa","[1]; Test 2b: iontophoresis, PEBAX MV 1041 membrane, 20 mg, 8 hours, 30.00 h",0.04 units/ml
same,"plasma level, Antifactor Xa","[1]; Test 2b: iontophoresis, PEBAX MV 1041 membrane, 20 mg, 8 hours, […]",0.61 units/ml
same,"plasma level, Antifactor Xa","[1]; Test 2c: reference iontophoresis, no membrane, 20 mg, 8 hours",0.35 units/ml
same,"plasma level, Antifactor Xa","[1]; Test 2c: reference iontophoresis, no membrane, 20 mg, 8 hours, 0 h",0 units/ml
same,"plasma level, Antifactor Xa","[1]; Test 2c: reference iontophoresis, no membrane, 20 mg, 8 hours, 0.25 h",0.03 units/ml
same,"plasma level, Antifactor Xa","[1]; Test 2c: reference iontophoresis, no membrane, 20 mg, 8 hours, 0.50 h",0.05 units/ml
same,"plasma level, Antifactor Xa","[1]; Test 2c: reference iontophoresis, no membrane, 20 mg, 8 hours, 1.00 h",0.09 units/ml
same,"plasma level, Antifactor Xa","[1]; Test 2c: reference iontophoresis, no membrane, 20 mg, 8 hours, 2.00 h",0.13 units/ml
same,"plasma level, Antifactor Xa","[1]; Test 2c: reference iontophoresis, no membrane, 20 mg, 8 hours, 4.00 h",0.27 units/ml
same,"plasma level, Antifactor Xa","[1]; Test 2c: reference iontophoresis, no membrane, 20 mg, 8 hours, 6.00 h",0.29 units/ml
same,"plasma level, Antifactor Xa","[1]; Test 2c: reference iontophoresis, no membrane, 20 mg, 8 hours, 10.00 h",0.34 units/ml
same,"plasma level, Antifactor Xa","[1]; Test 2c: reference iontophoresis, no membrane, 20 mg, 8 hours, 16.00 h",0.11 units/ml
same,"plasma level, Antifactor Xa","[1]; Test 2c: reference iontophoresis, no membrane, 20 mg, 8 hours, 24.00 h",0.08 units/ml
same,"plasma level, Antifactor Xa","[1]; Test 2c: reference iontophoresis, no membrane, 20 mg, 8 hours, 30.00 h",0.01 units/ml
same,"plasma level, Antifactor Xa","[1]; Test 2c: reference iontophoresis, no membrane, 20 mg, 8 hours, […]",0.14 units/ml
same,"plasma level, Antifactor Xa","[1]; Test 2d: subcutaneous injection 0.200 mg/kg, 0 h",0 units/ml
same,"plasma level, Antifactor Xa","[1]; Test 2d: subcutaneous injection 0.200 mg/kg, 0.25 h",0.11 units/ml
same,"plasma level, Antifactor Xa","[1]; Test 2d: subcutaneous injection 0.200 mg/kg, 0.50 h",0.13 units/ml
same,"plasma level, Antifactor Xa","[1]; Test 2d: subcutaneous injection 0.200 mg/kg, 1.00 h",0.17 units/ml
same,"plasma level, Antifactor Xa","[1]; Test 2d: subcutaneous injection 0.200 mg/kg, 2.00 h",0.22 units/ml
same,"plasma level, Antifactor Xa","[1]; Test 2d: subcutaneous injection 0.200 mg/kg, 4.00 h",0.26 units/ml
same,"plasma level, Antifactor Xa","[1]; Test 2d: subcutaneous injection 0.200 mg/kg, 6.00 h",0.24 units/ml
same,"plasma level, Antifactor Xa","[1]; Test 2d: subcutaneous injection 0.200 mg/kg, 8.00 h",0.15 units/ml
same,"plasma level, Antifactor Xa","[1]; Test 2d: subcutaneous injection 0.200 mg/kg, 10.00 h",0.12 units/ml
same,"plasma level, Antifactor Xa","[1]; Test 2d: subcutaneous injection 0.200 mg/kg, 16.00 h",0.06 units/ml
same,"plasma level, Antifactor Xa","[1]; Test 2d: subcutaneous injection 0.200 mg/kg, 24.00 h",0.00 units/ml
same,"plasma level, Antifactor Xa","[1]; Test 2d: subcutaneous injection 0.200 mg/kg, 30.00 h",0.00 units/ml
same,"plasma level, Antifactor Xa","[1]; Test 2d: subcutaneous injection 0.200 mg/kg, […]",0.06 units/ml
same,antifactor Xa activity,factor Xa,"0.65 ""Golden Standard"" units per microgram"
